According to US10807992B2, “Single enantiomer antiparasitic compounds” (priority 2017, dated 2020):

Experiments:
Ctenocephalides felis [1] = test: In vitro contact activity against fleas (coated substrate); conditions: for mortality at 0.006 ppm: Trial 3, dose 0.006 ppm; for mortality at 0.024 ppm: Trial 3, dose 0.024 ppm; for mortality at 0.098 ppm: Trial 3, dose 0.098 ppm; for mortality at 0.39 ppm: Trial 3, dose 0.39 ppm; for mortality at 1.56 ppm: Trial 3, dose 1.56 ppm; for mortality at 6.25 ppm: Trial 3, dose 6.25 ppm; for mortality at 25 ppm: Trial 3, dose 25 ppm; for mortality at 100 ppm: Trial 3, dose 100 ppm
Method: (§1) Ctenocephalides felis (Avista Pharma, Inc., RTP, NC), 1-7days post hatch, held in an environmental chamber at 24° C., 85% humidity.
For flea contact tests, vial caps were pre-drilled with a single hole in the center of each cap to allow air exchange. A filter paper (Whatman Grade 540 2.1 cm) was placed in the lid of each vial. Pipe cleaners cut to 0.5 inches were inserted in each test vial. An aliquot was taken from each compound stock and added to an acetone/triton solution to achieve the desired top concentrations for the study. Serial dilutions were conducted from the top dose (i.e. 100 ppm) to achieve the desired concentration for EC50 and EC90 determination. The final DMSO concentration was 0.5%. A 75 μL aliquot of each compound formulation was added to each 0.5 inch pipe cleaner contained in the treatment vial. The vials were loosely capped and allowed to dry for a minimum of four hours in a chemical fume hood.
(§2) Compounds tested were C1 racemate, the C1 (R) enantiomer, and the C1 (S) enantiomer. For Trial 3, the C1 (R) enantiomer and the C1 (S) enantiomer were further chiral purified to achieve >99% purity.
(§3) For both contact and ingestion assays, ten newly emerged unfed adult fleas, 0-7 days old Ctenocephalides felis, from a laboratory colony, were aspirated into each vial or cage. The test vials for contact assays were held in an environmental chamber at 24° C., 80% humidity with light/dark cycles (12 hours each). The cages for flea ingestion assays were held in a temperature-controlled artificial feeding apparatus to allow continual access to organic bovine blood containing the desired concentration of compound. Fresh aliquots of compound-spiked bovine blood were provided daily for the duration of the study.
(§4) Fleas were evaluated for percent mortality at various time points between 2 hours and 48 hours post infestation. Fleas showing normal movement and/or jumping ability were considered viable and those showing no movement after tapping the vials were scored as dead.

Ctenocephalides felis [2] = test: In vitro ingestion activity against fleas (artificial feeding, bovine blood); conditions: for mortality at 0.003 ppm: Trial 3, dose 0.003 ppm; for mortality at 0.012 ppm: Trial 3, dose 0.012 ppm; for mortality at 0.049 ppm: Trial 3, dose 0.049 ppm; for mortality at 0.2 ppm: Trial 3, dose 0.20 ppm; for mortality at 0.78 ppm: Trial 3, dose 0.78 ppm; for mortality at 3.125 ppm: Trial 3, dose 3.125 ppm; for mortality at 12.5 ppm: Trial 3, dose 12.5 ppm; for mortality at 50 ppm: Trial 3, dose 50 ppm
Method: as §1
For flea ingestion tests, serial dilutions of the compound stock were performed using DMSO to achieve the desired range for EC50 and EC90 determination. An aliquot of each compound dilution was added to organic bovine blood with a final DMSO concentration of 0.5% and placed in an artificial feeding container.
as §2, §3, §4

O=C(CC(F)(F)F)N1CC2(C1)OCc1cc(C3=NS[C@](c4cc(Cl)c(F)c(Cl)c4)(C(F)(F)F)C3)ccc12 [C1 (R) enantiomer, (R)-1-[6-[5-(3,5-dichloro-4-fluoro-phenyl)-5-(trifluoromethyl)-4H-isothiazol-3-yl]spiro[1H-isobenzofuran-3,3′-azetidine]-1′-yl]-3,3,3-trifluoro-propan-1-one] showed a mortality at 0.006 ppm (Ctenocephalides felis [1]; 6 h, Rep1) of 0%, a mortality at 0.006 ppm (Ctenocephalides felis [1]; 6 h, Rep2) of 0% and a mortality at 0.024 ppm (Ctenocephalides felis [1]; 6 h, Rep1) of 0%. The mortality at 0.024 ppm (Ctenocephalides felis [1]; 6 h, Rep2) was 0%, the mortality at 0.098 ppm (Ctenocephalides felis [1]; 6 h, Rep1) was 0% and the mortality at 0.098 ppm (Ctenocephalides felis [1]; 6 h, Rep2) was 0%. For the same compound, the mortality at 0.39 ppm (Ctenocephalides felis [1]; 6 h, Rep1) was 0%, the mortality at 0.39 ppm (Ctenocephalides felis [1]; 6 h, Rep2) was 0% and the mortality at 1.56 ppm (Ctenocephalides felis [1]; 6 h, Rep1) was 0%. The mortality at 1.56 ppm (Ctenocephalides felis [1]; 6 h, Rep2) was 0%, the mortality at 6.25 ppm (Ctenocephalides felis [1]; 6 h, Rep1) was 0% and the mortality at 6.25 ppm (Ctenocephalides felis [1]; 6 h, Rep2) was 0%. It also gave a mortality at 25 ppm (Ctenocephalides felis [1]; 6 h, Rep1) of 0%, a mortality at 25 ppm (Ctenocephalides felis [1]; 6 h, Rep2) of 0% and a mortality at 100 ppm (Ctenocephalides felis [1]; 6 h, Rep1) of 0%. For the same compound, the mortality at 100 ppm (Ctenocephalides felis [1]; 6 h, Rep2) was 0%, the mortality at 0.006 ppm (Ctenocephalides felis [1]; 24 h, Rep1) was 0% and the mortality at 0.006 ppm (Ctenocephalides felis [1]; 24 h, Rep2) was 0%. The mortality at 0.024 ppm (Ctenocephalides felis [1]; 24 h, Rep1) was 0%, the mortality at 0.024 ppm (Ctenocephalides felis [1]; 24 h, Rep2) was 0% and the mortality at 0.098 ppm (Ctenocephalides felis [1]; 24 h, Rep1) was 0%. For the same compound, the mortality at 0.098 ppm (Ctenocephalides felis [1]; 24 h, Rep2) was 0%, the mortality at 0.39 ppm (Ctenocephalides felis [1]; 24 h, Rep1) was 0% and the mortality at 0.39 ppm (Ctenocephalides felis [1]; 24 h, Rep2) was 0%. For the same compound, the mortality at 1.56 ppm (Ctenocephalides felis [1]; 24 h, Rep1) was 0%, the mortality at 1.56 ppm (Ctenocephalides felis [1]; 24 h, Rep2) was 0% and the mortality at 6.25 ppm (Ctenocephalides felis [1]; 24 h, Rep1) was 0%. For the same compound, the mortality at 6.25 ppm (Ctenocephalides felis [1]; 24 h, Rep2) was 0%, the mortality at 25 ppm (Ctenocephalides felis [1]; 24 h, Rep1) was 0% and the mortality at 25 ppm (Ctenocephalides felis [1]; 24 h, Rep2) was 0%. The mortality at 100 ppm (Ctenocephalides felis [1]; 24 h, Rep1) was 0%, the mortality at 100 ppm (Ctenocephalides felis [1]; 24 h, Rep2) was 0% and the mortality at 0.006 ppm (Ctenocephalides felis [1]; 48 h, Rep1) was 0%. It also gave a mortality at 0.006 ppm (Ctenocephalides felis [1]; 48 h, Rep2) of 0%, a mortality at 0.024 ppm (Ctenocephalides felis [1]; 48 h, Rep1) of 0% and a mortality at 0.024 ppm (Ctenocephalides felis [1]; 48 h, Rep2) of 0%. For the same compound, the mortality at 0.098 ppm (Ctenocephalides felis [1]; 48 h, Rep1) was 0%, the mortality at 0.098 ppm (Ctenocephalides felis [1]; 48 h, Rep2) was 0% and the mortality at 0.39 ppm (Ctenocephalides felis [1]; 48 h, Rep1) was 0%. The mortality at 0.39 ppm (Ctenocephalides felis [1]; 48 h, Rep2) was 0%, the mortality at 1.56 ppm (Ctenocephalides felis [1]; 48 h, Rep1) was 0% and the mortality at 1.56 ppm (Ctenocephalides felis [1]; 48 h, Rep2) was 0%. It also gave a mortality at 6.25 ppm (Ctenocephalides felis [1]; 48 h, Rep1) of 0%, a mortality at 6.25 ppm (Ctenocephalides felis [1]; 48 h, Rep2) of 0% and a mortality at 25 ppm (Ctenocephalides felis [1]; 48 h, Rep1) of 0%. The mortality at 25 ppm (Ctenocephalides felis [1]; 48 h, Rep2) was 0%, the mortality at 100 ppm (Ctenocephalides felis [1]; 48 h, Rep1) was 0% and the mortality at 100 ppm (Ctenocephalides felis [1]; 48 h, Rep2) was 0%. The mortality at 0.003 ppm (Ctenocephalides felis [2]; 6 h, Rep1) was 0%, the mortality at 0.003 ppm (Ctenocephalides felis [2]; 6 h, Rep2) was 0% and the mortality at 0.012 ppm (Ctenocephalides felis [2]; 6 h, Rep1) was 0%. The mortality at 0.012 ppm (Ctenocephalides felis [2]; 6 h, Rep2) was 0%, the mortality at 0.049 ppm (Ctenocephalides felis [2]; 6 h, Rep1) was 0% and the mortality at 0.049 ppm (Ctenocephalides felis [2]; 6 h, Rep2) was 0%. For the same compound, the mortality at 0.2 ppm (Ctenocephalides felis [2]; 6 h, Rep1) was 0%, the mortality at 0.2 ppm (Ctenocephalides felis [2]; 6 h, Rep2) was 0% and the mortality at 0.78 ppm (Ctenocephalides felis [2]; 6 h, Rep1) was 0%. For the same compound, the mortality at 0.78 ppm (Ctenocephalides felis [2]; 6 h, Rep2) was 0%, the mortality at 3.125 ppm (Ctenocephalides felis [2]; 6 h, Rep1) was 0% and the mortality at 3.125 ppm (Ctenocephalides felis [2]; 6 h, Rep2) was 20%. The mortality at 12.5 ppm (Ctenocephalides felis [2]; 6 h, Rep1) was 80%, the mortality at 12.5 ppm (Ctenocephalides felis [2]; 6 h, Rep2) was 40% and the mortality at 50 ppm (Ctenocephalides felis [2]; 6 h, Rep1) was 100%. It also gave a mortality at 50 ppm (Ctenocephalides felis [2]; 6 h, Rep2) of 100%, a mortality at 0.003 ppm (Ctenocephalides felis [2]; 24 h, Rep1) of 0% and a mortality at 0.003 ppm (Ctenocephalides felis [2]; 24 h, Rep2) of 0%. It also gave a mortality at 0.012 ppm (Ctenocephalides felis [2]; 24 h, Rep1) of 0%, a mortality at 0.012 ppm (Ctenocephalides felis [2]; 24 h, Rep2) of 0% and a mortality at 0.049 ppm (Ctenocephalides felis [2]; 24 h, Rep1) of 0%. The mortality at 0.049 ppm (Ctenocephalides felis [2]; 24 h, Rep2) was 0%, the mortality at 0.2 ppm (Ctenocephalides felis [2]; 24 h, Rep1) was 0% and the mortality at 0.2 ppm (Ctenocephalides felis [2]; 24 h, Rep2) was 0%. For the same compound, the mortality at 0.78 ppm (Ctenocephalides felis [2]; 24 h, Rep1) was 0%, the mortality at 0.78 ppm (Ctenocephalides felis [2]; 24 h, Rep2) was 0% and the mortality at 3.125 ppm (Ctenocephalides felis [2]; 24 h, Rep1) was 0%. It also gave a mortality at 3.125 ppm (Ctenocephalides felis [2]; 24 h, Rep2) of 0%, a mortality at 12.5 ppm (Ctenocephalides felis [2]; 24 h, Rep1) of 80% and a mortality at 12.5 ppm (Ctenocephalides felis [2]; 24 h, Rep2) of 40%. For the same compound, the mortality at 50 ppm (Ctenocephalides felis [2]; 24 h, Rep1) was 100%, the mortality at 50 ppm (Ctenocephalides felis [2]; 24 h, Rep2) was 100% and the mortality at 0.003 ppm (Ctenocephalides felis [2]; 48 h, Rep1) was 0%. For the same compound, the mortality at 0.003 ppm (Ctenocephalides felis [2]; 48 h, Rep2) was 0%, the mortality at 0.012 ppm (Ctenocephalides felis [2]; 48 h, Rep1) was 0% and the mortality at 0.012 ppm (Ctenocephalides felis [2]; 48 h, Rep2) was 0%. For the same compound, the mortality at 0.049 ppm (Ctenocephalides felis [2]; 48 h, Rep1) was 0%, the mortality at 0.049 ppm (Ctenocephalides felis [2]; 48 h, Rep2) was 0% and the mortality at 0.2 ppm (Ctenocephalides felis [2]; 48 h, Rep1) was 0%. The mortality at 0.2 ppm (Ctenocephalides felis [2]; 48 h, Rep2) was 0%, the mortality at 0.78 ppm (Ctenocephalides felis [2]; 48 h, Rep1) was 0% and the mortality at 0.78 ppm (Ctenocephalides felis [2]; 48 h, Rep2) was 0%. The mortality at 3.125 ppm (Ctenocephalides felis [2]; 48 h, Rep1) was 0%, the mortality at 3.125 ppm (Ctenocephalides felis [2]; 48 h, Rep2) was 0% and the mortality at 12.5 ppm (Ctenocephalides felis [2]; 48 h, Rep1) was 90%. For the same compound, the mortality at 12.5 ppm (Ctenocephalides felis [2]; 48 h, Rep2) was 60%, the mortality at 50 ppm (Ctenocephalides felis [2]; 48 h, Rep1) was 100% and the mortality at 50 ppm (Ctenocephalides felis [2]; 48 h, Rep2) was 100%.
